# Measurements as given in patent US20100029615A1, “BENZIMIDAZOLE DERIVATIVES” (priority 2006, published 2010).
# Where a name gives a salt, the structure may show the parent alone.
# Target: T1, SMO (Mus musculus, UniProt P56726)
# T1 construct: endogenous in cells; host or cells: C3H10T1/2 (ATCC #CCL-226)
# Assay: Smoothened (SMO)/Sonic Hedgehog (SHh) Transient Transcriptional Activation Assay (Gli-luciferase reporter in C3H10T1/2 cells)
# Assay type: cell-based, murine
# Settings: C3H 10T1/2, 2 uM test compound, SHh 250 ng/ml, 20 hrs, read-out: SMO % inhibition at 2 uM
# Method: As noted above, the compounds of the invention are useful as inhibitors of SMO. Methods for determining the in vitro activity of these compounds are described below: Smoothened (SMO)/Sonic Hedgehog (SHh) Transient Transcriptional Activation Assay
# On Day 1,2×10^6 C3H10T1/2 cells (ATCC #CCL-226) were split and seeded in 12 mls of growth medium Basal Medium Eagle (BME, Invitrogen #21010-046) supplemented with 2 mM L-glutamine (Invitrogen #25030-081), 0.1 units/ml penicillin and 0.1 ug/ml streptomycin (Invitrogen #15140-122), and 10% Fetal Bovine Serum (FBS, Invitrogen #16140-071) in a T-75 flask (Costar #3376). They were allowed to attach for 4 hours at 37° C., 5% CO2. The cells were then transfected using Fugene 6 (Roch #11 814 443 001) in the following reaction: 48 ul Fugene 6 and 745 ul Opti-MEM (Invitrogen #31985-070) were mixed and allowed to sit at room temperature for 5 minutes. 8 ug of pGL4.14/mGli(CS) DNA (10× murine Gli response elements and minimal CS promoter) and 0.5 ug of pEGFP DNA (Clontech) were added, gently mixed and incubated at room temperature for 20 minutes. This entire transfection mix was then added to the T-75 flask containing the cells. The cells were incubated at 37 °C, 5% C02 for 18-24 hrs.
# On Day 2, the transfected cells were trypsinized and seeded into white 96 well plates (Costar #3917) in 100ul/well of growth medium at a concentration of 20,000 cells/well. The cells were allowed to recover for 4 hrs before adding serum starvation medium Dulbecco's Modified Eagle Medium (DMEM, Invitrogen #21063-029) supplemented with 2 mM L-glutamine, 0.1 units/ml penicillin and 0.1 ug/ml streptomycin, and 0.5% Calf Serum (CS, Invitrogen #26170-043). The growth media was aspirated off, and the cells were rinsed with 100 ul of starvation media. 95 ul of starvation media was then added to each well. The cells were incubated for 20 hrs at 37 °C, 5% C02.
# On Day 3, cells were dosed with test compounds at a final concentration ranging from 2 uM to 2 nM. Immediately after dosing cells with compounds, recombinant human sonic hedgehog (SHh, R&D Systems #1845-SH) was add to a final concentration of 250 ng/ml. A 25 ug vial of SHh was reconstituted with 250 ul PBS/0.1% BSA to give a 100 ng/ul working stock. This working stock was then diluted 1:20 in starvation media. The transfected cells were incubated with compounds and SHh for 20 hrs at 37 °C, 5% C02.
# Luciferase assays were conducted on Day 4 using Dual-Glo Luciferase assay system (Promega #E2940) according to Promega's protocol. Briefly, Dual-Glo luciferase reagent was made up and 100 uls were added to each well of the 96 well plate containing media. Plates were shaken at room temperature for 10 minutes, and then read on TopCount (Perkin-Elmer). The luminescence was recorded.
# T1 sequence (P56726 33-793): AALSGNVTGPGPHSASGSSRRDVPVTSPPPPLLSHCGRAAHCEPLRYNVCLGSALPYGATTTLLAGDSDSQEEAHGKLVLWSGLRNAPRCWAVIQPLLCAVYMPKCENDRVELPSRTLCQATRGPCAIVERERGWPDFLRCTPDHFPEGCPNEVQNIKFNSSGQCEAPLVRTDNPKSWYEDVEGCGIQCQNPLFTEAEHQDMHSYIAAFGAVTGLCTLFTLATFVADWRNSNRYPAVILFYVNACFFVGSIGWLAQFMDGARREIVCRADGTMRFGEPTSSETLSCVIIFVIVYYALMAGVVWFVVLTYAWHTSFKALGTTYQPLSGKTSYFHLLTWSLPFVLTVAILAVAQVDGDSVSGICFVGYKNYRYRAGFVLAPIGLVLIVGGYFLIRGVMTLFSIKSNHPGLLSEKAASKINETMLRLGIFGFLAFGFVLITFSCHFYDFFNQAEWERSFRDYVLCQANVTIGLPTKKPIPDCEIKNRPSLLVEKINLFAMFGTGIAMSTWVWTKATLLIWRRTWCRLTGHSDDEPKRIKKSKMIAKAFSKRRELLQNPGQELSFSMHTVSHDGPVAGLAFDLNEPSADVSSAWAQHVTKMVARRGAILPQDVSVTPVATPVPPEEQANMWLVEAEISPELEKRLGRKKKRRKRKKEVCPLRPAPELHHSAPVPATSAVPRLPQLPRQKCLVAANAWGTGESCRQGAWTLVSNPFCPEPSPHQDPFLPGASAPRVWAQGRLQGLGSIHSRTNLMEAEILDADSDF
row,inhibition at 2 µM,SMILES
1,108%,"O=C(Cc1nc2ccc(Cl)cc2[nH]1)NC1CCCC(c2nc3ccccc3[nH]2)C1 (centres unmarked) [Example 46, N-(3-(1H-Benzo[d]imidazol-2-yl)cyclohexyl)-2-(6-chloro-1H-benzo[d]imidazol-2-yl)acetamide]"
2,99%,COCCNCc1ccc2nc([C@H]3CCC[C@@H](NC(=O)c4ccc5c(c4)OCCO5)C3)[nH]c2c1 [Example 43]

# Same assay, conditions: C3H 10T1/2, 2 μM test compound, SHh 250 ng/ml, 20 hrs, read-out: SMO CELL % INHIBITION @ 2 μM
row,SMILES,inhibition at 2 µM
1,"O=C(N[C@@H]1CCC[C@H](c2nc3ccccc3[nH]2)C1)c1ccc2c(c1)OCO2 [Example 186, N-[(1R,3S)-3-(1H-benzimidazol-2-yl)cyclohexyl]-1,3-benzodioxole-5-carboxamide triflouroacetate]",59%
2,"O=C(N[C@@H]1CCC[C@H](c2nc3ccccc3[nH]2)C1)c1ccc2nonc2c1 [Example 190, N-[(1R,3S)-3-(1H-benzimidazol-2-yl)cyclohexyl]-2,1,3-benzoxadiazole-5-carboxamide triflouroacetate]",37%
3,"O=C(NC1CCCC(c2nc3cc(F)c(F)cc3[nH]2)C1)c1ccc2c(c1)OCCO2 (centres unmarked) [Example 83, N-[3-(5,6-difluoro-1H-benzimidazol-2-yl)cyclohexyl]-2,3-dihydro-1,4-benzodioxine-6-carboxamide HCl]",103%
4,"N#Cc1cccc(NC(=O)N[C@@H]2CCC[C@H](c3nc4ccccc4[nH]3)C2)c1 [Example 231, 1-[(1R,3S)-3-(1H-benzimidazol-2-yl)cyclohexyl] 3-(3-cyanophenyl)-urea]",103%
5,"O=C(Cn1ccc2ccccc2c1=O)NC1CCCC(c2nc3ccccc3[nH]2)C1 (centres unmarked) [Example 154, N-[3-(1H-benzimidazol-2-yl)cyclohexyl]-2-(1-oxoisoquinolin-2(1H)-yl)acetamide triflouroacetate]",57%
6,"O=C(N[C@@H]1CCC[C@H](c2nc3ccccc3[nH]2)C1)C1COc2ccccc2C1 (stereo partly drawn) [Example 195, N-[(1R,3S)-3-(1H-benzimidazol-2-yl)cyclohexyl] chromane-3-carboxamide triflouroacetate]",81%
7,"COCCNc1ccc(C(=O)N[C@@H]2CCC[C@H](c3nc4cc(C(F)(F)F)ccc4[nH]3)C2)cn1 [Example 292, 6-[(2-methoxyethyl)amino]-N-{(1R,3S)-3-[5-(trifluoromethyl)-1H-benzimidazol-2-yl]cyclohexyl} nicotinamide HCl]",104%
8,"O=C(N[C@@H]1CCC[C@H](c2nc3ccccc3[nH]2)C1)c1cc2ccc(Cl)cc2[nH]1 [Example 210, N-[(1R,3S)-3-(1H-benzimidazol-2-yl)cyclohexyl]-6-chloro-1H-indole-2-carboxamide triflouroacetate]",88%
9,"O=C1COc2ccc(C(=O)N[C@@H]3CCC[C@H](c4nc5cc(Cl)ccc5[nH]4)C3)cc2N1 [Example 299, N-[(1R,3S)-3-(5-chloro-1H-benzimidazol-2-yl)cyclohexyl]-3-oxo-3,4-dihydro-2H-1,4-benzoxazine-6-carboxamide (+)-tartrate]",105%
10,"O=C1COc2ccc(C(=O)N[C@@H]3CCCC(c4nc5ccccc5[nH]4)C3)cc2N1 (stereo partly drawn) [Example 294, N-[(1R)-3-(1H-benzimidazol-2-yl)cyclohexyl]-3-oxo-3,4-dihydro-2H-1,4-benzoxazine-6-carboxamide (+)-tartrate]",62.5%
11,"Cc1[nH]c2ccc(C(=O)N[C@@H]3CCC[C@H](c4nc5ccccc5[nH]4)C3)cc2c1C [Example 192, N-[(1R,3S)-3-(1H-benzimidazol-2-yl)cyclohexyl]-2,3-dimethyl-1H-indole-5-carboxamide triflouroacetate]",109%
12,"O=C(N[C@@H]1CCC[C@H](c2nc3ccccc3[nH]2)C1)c1ccc2c(c1)OCCO2 [Example 63, N-[(1R,3S)-3-(1H-benzimidazol-2-yl)cyclohexyl]-2,3-dihydro-1,4-benzodioxine-6-carboxamide HCl]",108%
13,"O=C(CNC(=O)c1ccccc1)NC1CCCC(c2nc3ccccc3[nH]2)C1 (centres unmarked) [Example 117, N-(2-{[3-(1H-benzimidazol-2-yl)cyclohexyl]amino}-2-oxoethyl)benz-amide triflouroacetate]",102%
14,"Cc1ccoc1C(=O)NC1CCCC(c2nc3ccccc3[nH]2)C1 (centres unmarked) [Example 93, N-[3-(1H-benzimidazol-2-yl)cyclohexyl]-3-methyl-2-furamide triflouroacetate]",24%
15,"N#Cc1ccc2nc([C@H]3CCC[C@@H](NC(=O)c4ccc5c(c4)OCCO5)C3)[nH]c2c1 [Example 172, N-[(1R,3S)-3-(6-cyano-1H-benzimidazol-2-yl)cyclohexyl]-2,3-dihydro-1,4-benzodioxine-6-carboxamide HCl]",90%

# Results, then the compound that gave them:
row,inhibition at 2 µM,SMILES
1,83%,"C[S+]([O-])c1ccc(C(=O)NC2CCCC(c3nc4ccccc4[nH]3)C2)cc1 (centres unmarked) [Example 126, N-[3-(1H-benzimidazol-2-yl)cyclophexyl]-4-(methylsulfinyl) benzamide triflouroacetate]"
2,82%,"O=C(NC1CCCC(c2nc3ccccc3[nH]2)C1)c1ccc2c(c1)OCO2 (centres unmarked) [Example 58, N-[3-(1H-benzimidazol-2-yl)cyclohexyl]-1,3-benzodioxole-5-carboxamide HCl]"
3,106%,"O=C(N[C@@H]1CCC[C@H](c2nc3cc(C(F)(F)F)ccc3[nH]2)C1)c1n[nH]c2c1CCCCCC2 [Example 283, N-{(1R,3S)-3-[5-(trifluoromethyl)-1H-benzimidazol-2-yl]cyclohexyl} 4,5,6,7,8,9-hexahydro-1H-cycloocta[c]-pyrazole-3-carboxamide HCl]"
4,111%,O=C(Nc1ccc(Cl)c(Cl)c1)N[C@@H]1CCC[C@H](c2nc3ccccc3[nH]2)C1 [Example 237]
5,71%,"O=C(N[C@@H]1CCC[C@H](c2nc3ccccc3[nH]2)C1)c1n[nH]c2c1CCCCCC2 [Example 212, N-[(1R,3S)-3-(1H-benzimidazol-2-yl)cyclohexyl]-4,5,6,7,8,9-hexahydro-1H-cycloocta[c] pyrazole-3-carboxamide triflouroacetate]"
6,64%,"CCc1n[nH]c(C(=O)NC2CCCC(c3nc4ccccc4[nH]3)C2)c1C (centres unmarked) [Example 155, N-[3-(1H-benzimidazol-2-yl)cyclohexyl]-3-ethyl-4-methyl-1H-pyrazol-5-carboxamide triflouroacetate]"
7,108%,"O=C(Nc1ccc(Cl)cc1Cl)N[C@@H]1CCC[C@H](c2nc3ccccc3[nH]2)C1 [Example 234, 1-[(1R,3S)-3-(1H-benzimidazol-2-yl)cyclohexyl]-3-(2,4-dichlorophenyl) urea]"
8,109%,"N#Cc1ccc(NC(=O)N[C@@H]2CCC[C@H](c3nc4ccccc4[nH]3)C2)cc1 [Example 228, 1-[(1R,3S)-3-(1H-benzimidazol-2-yl)cyclohexyl]-3-(4-cyanophenyl) urea]"
9,98%,"COc1ccc(NC(=O)N[C@@H]2CCC[C@H](c3nc4ccccc4[nH]3)C2)c(C)c1 [Example 235, 1-[(1R,3S)-3-(1H-benzimidazol-2-yl)cyclohexyl]-3-(4-methoxy-2-methylphenyl) urea]"
10,69%,"CC(C(=O)NC1CCCC(c2nc3ccccc3[nH]2)C1)n1cccn1 (centres unmarked) [Example 142, N-[3-(1H-benzimidazol-2-yl)cyclohexyl]-2-(1H-pyrazol-1-yl)propanamide triflouroacetate]"
11,95.5%,"COc1cc(OC)cc(C(=O)NC23CCCC(c4nc5cc(C(F)(F)F)ccc5[nH]4)(C2)C3)c1 [Example 259, 3,5-dimethoxy-N-{5-[5-(trifluoromethyl)-1H-benzimidazol-2-yl)bicyclo[3.1.1]hept-1-yl}benzamide]"
12,46%,"O=C(NC1CCCC(c2nc3ccccc3[nH]2)C1)c1cc(-c2ccccn2)n[nH]1 (centres unmarked) [Example 153, N-[3-(1H-benzimidazol-2-yl)cyclohexyl]-3-pyridin-2-yl-1H-pyrazole-5-carboxamide triflouroacetate]"
